According to the OligoGym collection:
After the bases stand the sugars from the 5' end (letter, count) and the backbone: PS all phosphorothioate, else s phosphorothioate and o phosphodiester by linkage. Methylation of C is not given here. e = 2'-O-(2-methoxyethyl) (MOE); k = constrained ethyl (cEt); d = 2'-deoxy (DNA); m = 2'-O-methyl

Molecular target: HSD17B13
Conditions: ASO, HepaRG

Sequence: AAAGTTTGTTAGAGTG (sugars k3 d10 k3, PS)
- target mRNA inhibition (0.02 µM): 0%
- target mRNA inhibition (0.078 µM): 6%
- target mRNA inhibition (0.313 µM): 0%
- target mRNA inhibition (1 µM): 75%
- target mRNA inhibition (1.25 µM): 55%
- target mRNA inhibition (5 µM): 78%

Sequence: TTAGTATAGTTATCTT (sugars k3 d9 k3 e1, PS)
- target mRNA inhibition (1 µM): 45%

Sequence: GGTAAGTATTCCATCT (sugars k3 d10 k3, PS)
- target mRNA inhibition (1 µM): 12%

Sequence: ATCCCACAGAACCAAT (sugars k3 d10 k3, PS)
- target mRNA inhibition (1 µM): 34%

Sequence: AGCGAATGTTAAAACT (sugars k3 d10 k3, PS)
- target mRNA inhibition (1 µM): 16%

Sequence: ACCAATATGGGATGAG (sugars k3 d10 k3, PS)
- target mRNA inhibition (1 µM): 24%

Sequence: TTCTGTGGCATGGCTA (sugars k3 d1 m1 d8 k3, PS)
- target mRNA inhibition (1 µM): 65%

Sequence: TATGAGTAAAGATCTA (sugars k3 d10 k3, PS)
- target mRNA inhibition (1 µM): 10%

Sequence: AGTAATAAAGTCCAGA (sugars k3 d10 k3, PS)
- target mRNA inhibition (1 µM): 43%

Sequence: GACAATTAACATTCGG (sugars k3 d10 k3, PS)
- target mRNA inhibition (1 µM): 69%

Sequence: GTCTAAACATCTCTGG (sugars k3 d9 k3 e1, PS)
- target mRNA inhibition (1 µM): 49%

Sequence: TTCCGTCTCACAATCT (sugars k3 d10 k3, PS)
- target mRNA inhibition (0.02 µM): 10%
- target mRNA inhibition (0.078 µM): 13%
- target mRNA inhibition (0.313 µM): 49%
- target mRNA inhibition (1 µM): 79%
- target mRNA inhibition (1.25 µM): 83%
- target mRNA inhibition (5 µM): 80%

Sequence: TTTCGCTACTGTAGGC (sugars k3 d10 k3, PS)
- target mRNA inhibition (1 µM): 62%

Sequence: GGTAACGGTGATCAAA (sugars k3 d10 k3, PS)
- target mRNA inhibition (1 µM): 51%

Sequence: TCGGCTGGATATACTG (sugars k3 d10 k3, PS)
- target mRNA inhibition (1 µM): 23%

Sequence: AACCATAGGACATGGA (sugars k3 d10 k3, PS)
- target mRNA inhibition (1 µM): 71%

Sequence: GCTTATCGAGTTTAGC (sugars k3 d10 k3, PS)
- target mRNA inhibition (1 µM): 17%

Sequence: TAGAATAGTCTTCAGC (sugars k3 d10 k3, PS)
- target mRNA inhibition (0.02 µM): 0%
- target mRNA inhibition (0.078 µM): 0%
- target mRNA inhibition (0.313 µM): 16%
- target mRNA inhibition (1 µM): 70%
- target mRNA inhibition (1.25 µM): 52%
- target mRNA inhibition (5 µM): 77%

Sequence: GTCTUAAACCTTCCCT (sugars k3 d1 m1 d8 k3, PS)
- target mRNA inhibition (1 µM): 35%

Sequence: TCGGCACTCAGCTGCA (sugars k3 d10 k3, PS)
- target mRNA inhibition (1 µM): 52%

Sequence: AATACATATCTTACTC (sugars k3 d10 k3, PS)
- target mRNA inhibition (1 µM): 37%

Sequence: TGTGTTCTTGTTGATA (sugars k3 d10 k3, PS)
- target mRNA inhibition (1 µM): 69%

Sequence: AGTTGCACCGTTTTGG (sugars kkdddddddddkekek, PS)
- target mRNA inhibition (1 µM): 41%

Sequence: AGTTGCACCGTTTTGG (sugars k3 d9 k3 e1, PS)
- target mRNA inhibition (1 µM): 43%

Sequence: ATGTTTATGTAAGCAC (sugars k3 d9 k3 e1, PS)
- target mRNA inhibition (0.02 µM): 6%
- target mRNA inhibition (0.078 µM): 0%
- target mRNA inhibition (0.313 µM): 39%
- target mRNA inhibition (1 µM): 73%
- target mRNA inhibition (1.25 µM): 66%
- target mRNA inhibition (5 µM): 70%

Sequence: TCCAATTTAAATCAGG (sugars k3 d10 k3, PS)
- target mRNA inhibition (1 µM): 61%

Sequence: TGGTAATCTCTTCATC (sugars k3 d10 k3, PS)
- target mRNA inhibition (1 µM): 23%

Sequence: AAAGACTTTGAGACTC (sugars k3 d10 k3, PS)
- target mRNA inhibition (0.02 µM): 0%
- target mRNA inhibition (0.078 µM): 18%
- target mRNA inhibition (0.313 µM): 40%
- target mRNA inhibition (1 µM): 68%
- target mRNA inhibition (1.25 µM): 65%
- target mRNA inhibition (5 µM): 87%

Sequence: GAGCTAGACAATTGCA (sugars k3 d10 k3, PS)
- target mRNA inhibition (1 µM): 73%

Sequence: TTCTGTGGCATGGCTA (sugars k3 d9 k3 e1, PS)
- target mRNA inhibition (1 µM): 59%

Sequence: GTCCAGAAGTATGTGA (sugars k3 d10 k3, PS)
- target mRNA inhibition (1 µM): 9%

Sequence: AGATGGGCAAGGCCAC (sugars k3 d10 k3, PS)
- target mRNA inhibition (1 µM): 59%

Sequence: ACAATCTAGCAACCTC (sugars k3 d10 k3, PS)
- target mRNA inhibition (1 µM): 44%

Sequence: GTGCTTTTGTGATCCA (sugars k3 d10 k3, PS)
- target mRNA inhibition (1 µM): 62%

Sequence: TCTACCACATACGCAT (sugars k3 d10 k3, PS)
- target mRNA inhibition (1 µM): 55%

Sequence: AAACAAGAGGATAGTC (sugars kkdddddddddkekek, PS)
- target mRNA inhibition (1 µM): 52%
